Source: the NIST ThermoML archive (doi:10.1021/acs.jced.9b00396)

Conditions: Liquid; for speed of sound: Frequency=3 MHz, Single path-length method; for mass density: Vibrating tube method

OCc1ccccc1 [benzenemethanol]
Conditions | mass density [kg/m3] | speed of sound [m/s]
293.15 K, 100 kPa | 1045.6 | 1541
298.15 K, 100 kPa | 1041.8 | 1526
298.15 K, 500 kPa | 1042 | –
298.15 K, 1000 kPa | 1042 | –
298.15 K, 2500 kPa | 1043 | –
298.15 K, 5000 kPa | 1044 | –
298.15 K, 7500 kPa | 1045 | –
298.15 K, 10000 kPa | 1046 | –
298.15 K, 12500 kPa | 1047 | –
298.15 K, 15000 kPa | 1049 | –
298.15 K, 17500 kPa | 1050 | –
298.15 K, 20000 kPa | 1051 | –
298.15 K, 22500 kPa | 1052 | –
298.15 K, 25000 kPa | 1053 | –
298.15 K, 27500 kPa | 1055 | –
298.15 K, 30000 kPa | 1056 | –
298.15 K, 32500 kPa | 1057 | –
298.15 K, 35000 kPa | 1058 | –
313.15 K, 100 kPa | 1030 | 1479
318.15 K, 500 kPa | 1026 | –
318.15 K, 1000 kPa | 1026 | –
318.15 K, 2500 kPa | 1027 | –
318.15 K, 5000 kPa | 1028 | –
318.15 K, 7500 kPa | 1030 | –
318.15 K, 10000 kPa | 1031 | –
318.15 K, 12500 kPa | 1032 | –
318.15 K, 15000 kPa | 1034 | –
318.15 K, 17500 kPa | 1035 | –
318.15 K, 20000 kPa | 1036 | –
318.15 K, 22500 kPa | 1037 | –
318.15 K, 25000 kPa | 1039 | –
318.15 K, 27500 kPa | 1040 | –
318.15 K, 30000 kPa | 1041 | –
318.15 K, 32500 kPa | 1042 | –
318.15 K, 35000 kPa | 1043 | –
333.15 K, 100 kPa | 1011.3 | 1417
338.15 K, 500 kPa | 1010 | –
338.15 K, 1000 kPa | 1010 | –
338.15 K, 2500 kPa | 1011 | –
338.15 K, 5000 kPa | 1013 | –
338.15 K, 7500 kPa | 1014 | –
338.15 K, 10000 kPa | 1016 | –
338.15 K, 12500 kPa | 1017 | –
338.15 K, 15000 kPa | 1018 | –
338.15 K, 17500 kPa | 1020 | –
338.15 K, 20000 kPa | 1021 | –
338.15 K, 22500 kPa | 1023 | –
338.15 K, 25000 kPa | 1024 | –
338.15 K, 27500 kPa | 1025 | –
338.15 K, 30000 kPa | 1026 | –
338.15 K, 32500 kPa | 1028 | –
338.15 K, 35000 kPa | 1029 | –
358.15 K, 500 kPa | 994 | –
358.15 K, 1000 kPa | 994 | –
358.15 K, 2500 kPa | 995 | –
358.15 K, 5000 kPa | 997 | –
358.15 K, 7500 kPa | 998 | –
358.15 K, 10000 kPa | 1000 | –
358.15 K, 12500 kPa | 1001 | –
358.15 K, 15000 kPa | 1003 | –
358.15 K, 17500 kPa | 1005 | –
358.15 K, 20000 kPa | 1006 | –
358.15 K, 22500 kPa | 1007 | –
358.15 K, 25000 kPa | 1009 | –
358.15 K, 27500 kPa | 1010 | –
358.15 K, 30000 kPa | 1012 | –
358.15 K, 32500 kPa | 1013 | –
358.15 K, 35000 kPa | 1014 | –
378.15 K, 500 kPa | 977 | –
378.15 K, 1000 kPa | 978 | –
378.15 K, 2500 kPa | 979 | –
378.15 K, 5000 kPa | 980 | –
378.15 K, 7500 kPa | 982 | –
378.15 K, 10000 kPa | 984 | –
378.15 K, 12500 kPa | 985 | –
378.15 K, 15000 kPa | 987 | –
378.15 K, 17500 kPa | 989 | –
378.15 K, 20000 kPa | 990 | –
378.15 K, 22500 kPa | 992 | –
378.15 K, 25000 kPa | 994 | –
378.15 K, 27500 kPa | 995 | –
378.15 K, 30000 kPa | 997 | –
378.15 K, 32500 kPa | 998 | –
378.15 K, 35000 kPa | 1000 | –
398.15 K, 500 kPa | 960 | –
398.15 K, 1000 kPa | 960 | –
398.15 K, 2500 kPa | 962 | –
398.15 K, 5000 kPa | 963 | –
398.15 K, 7500 kPa | 965 | –
398.15 K, 10000 kPa | 967 | –
398.15 K, 12500 kPa | 969 | –
398.15 K, 15000 kPa | 971 | –
398.15 K, 17500 kPa | 973 | –
398.15 K, 20000 kPa | 974 | –
398.15 K, 22500 kPa | 976 | –
398.15 K, 25000 kPa | 978 | –
398.15 K, 27500 kPa | 979 | –
398.15 K, 30000 kPa | 981 | –
398.15 K, 32500 kPa | 983 | –
398.15 K, 35000 kPa | 985 | –
418.15 K, 500 kPa | 942 | –
418.15 K, 1000 kPa | 943 | –
418.15 K, 2500 kPa | 944 | –
418.15 K, 5000 kPa | 946 | –
418.15 K, 7500 kPa | 948 | –
418.15 K, 10000 kPa | 950 | –
418.15 K, 12500 kPa | 952 | –
418.15 K, 15000 kPa | 954 | –
418.15 K, 17500 kPa | 956 | –
418.15 K, 20000 kPa | 958 | –
418.15 K, 22500 kPa | 960 | –
418.15 K, 25000 kPa | 962 | –
418.15 K, 27500 kPa | 964 | –
418.15 K, 30000 kPa | 965 | –
418.15 K, 32500 kPa | 967 | –
418.15 K, 35000 kPa | 969 | –
438.15 K, 500 kPa | 924 | –
438.15 K, 1000 kPa | 924 | –
438.15 K, 2500 kPa | 926 | –
438.15 K, 5000 kPa | 928 | –
438.15 K, 7500 kPa | 930 | –
438.15 K, 10000 kPa | 933 | –
438.15 K, 12500 kPa | 935 | –
438.15 K, 15000 kPa | 937 | –
438.15 K, 17500 kPa | 939 | –
438.15 K, 20000 kPa | 941 | –
438.15 K, 22500 kPa | 944 | –
438.15 K, 25000 kPa | 946 | –
438.15 K, 27500 kPa | 948 | –
438.15 K, 30000 kPa | 949 | –
438.15 K, 32500 kPa | 952 | –
438.15 K, 35000 kPa | 953 | –
458.15 K, 500 kPa | 904 | –
458.15 K, 1000 kPa | 905 | –
458.15 K, 2500 kPa | 907 | –
458.15 K, 5000 kPa | 909 | –
458.15 K, 7500 kPa | 912 | –
458.15 K, 10000 kPa | 915 | –
458.15 K, 12500 kPa | 917 | –
458.15 K, 15000 kPa | 920 | –
458.15 K, 17500 kPa | 922 | –
458.15 K, 20000 kPa | 924 | –
458.15 K, 22500 kPa | 927 | –
458.15 K, 25000 kPa | 929 | –
458.15 K, 27500 kPa | 931 | –
458.15 K, 30000 kPa | 933 | –
458.15 K, 32500 kPa | 935 | –
458.15 K, 35000 kPa | 937 | –
473.15 K, 500 kPa | 889 | –
473.15 K, 1000 kPa | 891 | –
473.15 K, 2500 kPa | 892 | –
473.15 K, 5000 kPa | 895 | –
473.15 K, 7500 kPa | 898 | –
473.15 K, 10000 kPa | 901 | –
473.15 K, 12500 kPa | 903 | –
473.15 K, 15000 kPa | 906 | –
473.15 K, 17500 kPa | 909 | –
473.15 K, 20000 kPa | 911 | –
473.15 K, 22500 kPa | 914 | –
473.15 K, 25000 kPa | 916 | –
473.15 K, 27500 kPa | 919 | –
473.15 K, 30000 kPa | 921 | –
473.15 K, 32500 kPa | 923 | –
473.15 K, 35000 kPa | 925 | –
